Data reported in PubChem BioAssay (NCI).
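Test compounds were applied to cells in 96-well plates for 48 hours at 5 doses. GI50 marks 50% less growth. The concentration for full growth arrest is given as TGI.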

What was measured:
Test in all cases: NCI-60 cell line screen, 48 h
786-0 renal = test system: 786-0 renal
A498 renal = test system: A498 renal
A549 NSCLC = test system: A549 NSCLC
ACHN renal = test system: ACHN renal
BT-549 breast = test system: BT-549 breast
CAKI-1 renal = test system: CAKI-1 renal
CCRF-CEM leukemia = test system: CCRF-CEM leukemia
COLO 205 colon = test system: COLO 205 colon
DU-145 prostate = test system: DU-145 prostate
EKVX NSCLC = test system: EKVX NSCLC
HCC-2998 colon = test system: HCC-2998 colon
HCT-116 colon = test system: HCT-116 colon
HCT-15 colon = test system: HCT-15 colon
HL-60(TB) leukemia = test system: HL-60(TB) leukemia
HOP-62 NSCLC = test system: HOP-62 NSCLC
HOP-92 NSCLC = test system: HOP-92 NSCLC
HS 578T breast = test system: HS 578T breast
HT29 colon = test system: HT29 colon
IGROV1 ovarian = test system: IGROV1 ovarian
K-562 leukemia = test system: K-562 leukemia
KM12 colon = test system: KM12 colon
LOX IMVI melanoma = test system: LOX IMVI melanoma
M14 melanoma = test system: M14 melanoma
MALME-3M melanoma = test system: MALME-3M melanoma
MCF7 breast = test system: MCF7 breast
MDA-MB-231 breast = test system: MDA-MB-231 breast
MDA-MB-435 = test system: MDA-MB-435
MOLT-4 leukemia = test system: MOLT-4 leukemia
NCI-H226 lung = test system: NCI-H226 lung

`COc1ccc(CCOc2cc3c(cc2OC)CCN(C(=O)NCc2cocn2)C3c2ccc(C)cc2C)cc1` (configuration not stated) was tested, and the GI50 (786-0 renal) was 617 nM, the TGI (786-0 renal) was 8110 nM and the GI50 (A498 renal) was 1480 nM. The TGI (A498 renal) was 6430 nM, the GI50 (A549 NSCLC) was 1080 nM and the TGI (A549 NSCLC) was > 100000 nM. The GI50 (ACHN renal) was 628 nM, the TGI (ACHN renal) was 8890 nM and the GI50 (BT-549 breast) was 1010 nM. The TGI (BT-549 breast) was 3570 nM, the GI50 (CAKI-1 renal) was 740 nM and the TGI (CAKI-1 renal) was 7240 nM. It also gave a GI50 (CCRF-CEM leukemia) of 458 nM, a TGI (CCRF-CEM leukemia) of 9660 nM and a GI50 (COLO 205 colon) of 835 nM. It also gave a TGI (COLO 205 colon) of 2760 nM, a GI50 (DU-145 prostate) of 790 nM and a TGI (DU-145 prostate) of 5890 nM. The GI50 (EKVX NSCLC) was 3140 nM, the TGI (EKVX NSCLC) was > 100000 nM and the GI50 (HCC-2998 colon) was 1320 nM. The TGI (HCC-2998 colon) was > 35000 nM, the GI50 (HCT-116 colon) was 404 nM and the TGI (HCT-116 colon) was 21800 nM. For the same molecule, the GI50 (HCT-15 colon) was 407 nM, the TGI (HCT-15 colon) was > 37500 nM and the GI50 (HL-60(TB) leukemia) was 273 nM. For the same molecule, the TGI (HL-60(TB) leukemia) was 833 nM, the GI50 (HOP-62 NSCLC) was 1020 nM and the TGI (HOP-62 NSCLC) was 17100 nM. The GI50 (HOP-92 NSCLC) was 3470 nM, the TGI (HOP-92 NSCLC) was 18200 nM and the GI50 (HS 578T breast) was 845 nM. It also gave a TGI (HS 578T breast) of 5150 nM, a GI50 (HT29 colon) of 371 nM and a TGI (HT29 colon) of 2150 nM. The GI50 (IGROV1 ovarian) was 905 nM, the TGI (IGROV1 ovarian) was > 100000 nM and the GI50 (K-562 leukemia) was 355 nM. For the same molecule, the TGI (K-562 leukemia) was > 55200 nM, the GI50 (KM12 colon) was 542 nM and the TGI (KM12 colon) was 8200 nM. It also gave a GI50 (LOX IMVI melanoma) of 388 nM, a TGI (LOX IMVI melanoma) of 4610 nM and a GI50 (M14 melanoma) of 765 nM. It also gave a TGI (M14 melanoma) of 5740 nM, a GI50 (MALME-3M melanoma) of 1490 nM and a TGI (MALME-3M melanoma) of 11700 nM. The GI50 (MCF7 breast) was 452 nM, the TGI (MCF7 breast) was > 38700 nM and the GI50 (MDA-MB-231 breast) was 834 nM. It also gave a TGI (MDA-MB-231 breast) of 6490 nM, a GI50 (MDA-MB-435) of 296 nM and a TGI (MDA-MB-435) of 919 nM. For the same molecule, the GI50 (MOLT-4 leukemia) was 537 nM, the TGI (MOLT-4 leukemia) was > 24800 nM and the GI50 (NCI-H226 lung) was 1020 nM.
